What was measured:
[1] = tested on: streptozotocin (STZ) induced diabetic mice; test: Blood glucose lowering after tail vein injection in STZ-induced diabetic mice; assay type: in vivo
Procedure: The mice were fasted during the glucose testing period.
The injection dose for the three samples were readily kept the same at 10 nmol/Kg insulin or its conjugate (for native insulin dose, 10 nmol/kg=1.5 IU/kg), by accurately controlling the feeding molar content of insulin for the conjugation reaction.
The in vivo bioavailability of insulin samples was evaluated by quantifying the area above the curve (AAC) of relative intensity of blood glucose concentration in FIG. 4B.

[2] = Hydrodynamic size by dynamic light scattering (DLS); assay type: physicochemical; details: pH 8.4 0.2M HEPES buffer, 25° C.; average±standard deviation, n=3
Procedure: The hydrodynamic sizes of the insulin and its conjugate samples were collected by a DLS method using a Malvern Nano-ZS Zetasizer at 25° C.
The hydrodynamic size of PCB-conjugated insulin was measured by a dynamic light scattering (DLS) method by using a Malvern Nano-ZS Zetasizer.

[3] = Circular dichroism secondary structure of insulin samples; assay type: physicochemical; details: far-UV CD, 0.2 mg/mL in 0.2 M pH 8.2 PBS buffer, CDSSTR analysis
Procedure: CD spectra were collected by using a Chirascan spectrophotometer from Applied Photophysics at 25° C. Insulin samples were dissolved in 0.2 M PBS buffer at 0.2 mg/ml. The […] CD spectra were measured from 200 to 250 nm with the light-path length of 1 mm. The scanning speed of CD spectra measurement was set at 200 nm/min. Each spectrum was the average of three scans to increase the signal-to-noise ratio of the measurements. The secondary structure proportions for insulin and its conjugates were analyzed using CDSSTR software.
The effect of polymer conjugation on the structure change of insulin was evaluated. Far-ultraviolet CD spectra were collected to quantify the effect of the zwitterionic polymer conjugation on insulin's secondary structure.

insulin receptor = biological target: T1, insulin receptor (Cricetulus griseus, UniProt A0A8C2MAM4); test: In vitro bioactivity assay of insulin (phosphorylated AKT at Ser473 in CHO-M 1 cells); assay type: cell-based; details: 10 μg/mL, 45 minutes, FIG. 4C
T1 construct: host or cells: CHO-M1 cells
T1 sequence (A0A8C2MAM4 28-1372): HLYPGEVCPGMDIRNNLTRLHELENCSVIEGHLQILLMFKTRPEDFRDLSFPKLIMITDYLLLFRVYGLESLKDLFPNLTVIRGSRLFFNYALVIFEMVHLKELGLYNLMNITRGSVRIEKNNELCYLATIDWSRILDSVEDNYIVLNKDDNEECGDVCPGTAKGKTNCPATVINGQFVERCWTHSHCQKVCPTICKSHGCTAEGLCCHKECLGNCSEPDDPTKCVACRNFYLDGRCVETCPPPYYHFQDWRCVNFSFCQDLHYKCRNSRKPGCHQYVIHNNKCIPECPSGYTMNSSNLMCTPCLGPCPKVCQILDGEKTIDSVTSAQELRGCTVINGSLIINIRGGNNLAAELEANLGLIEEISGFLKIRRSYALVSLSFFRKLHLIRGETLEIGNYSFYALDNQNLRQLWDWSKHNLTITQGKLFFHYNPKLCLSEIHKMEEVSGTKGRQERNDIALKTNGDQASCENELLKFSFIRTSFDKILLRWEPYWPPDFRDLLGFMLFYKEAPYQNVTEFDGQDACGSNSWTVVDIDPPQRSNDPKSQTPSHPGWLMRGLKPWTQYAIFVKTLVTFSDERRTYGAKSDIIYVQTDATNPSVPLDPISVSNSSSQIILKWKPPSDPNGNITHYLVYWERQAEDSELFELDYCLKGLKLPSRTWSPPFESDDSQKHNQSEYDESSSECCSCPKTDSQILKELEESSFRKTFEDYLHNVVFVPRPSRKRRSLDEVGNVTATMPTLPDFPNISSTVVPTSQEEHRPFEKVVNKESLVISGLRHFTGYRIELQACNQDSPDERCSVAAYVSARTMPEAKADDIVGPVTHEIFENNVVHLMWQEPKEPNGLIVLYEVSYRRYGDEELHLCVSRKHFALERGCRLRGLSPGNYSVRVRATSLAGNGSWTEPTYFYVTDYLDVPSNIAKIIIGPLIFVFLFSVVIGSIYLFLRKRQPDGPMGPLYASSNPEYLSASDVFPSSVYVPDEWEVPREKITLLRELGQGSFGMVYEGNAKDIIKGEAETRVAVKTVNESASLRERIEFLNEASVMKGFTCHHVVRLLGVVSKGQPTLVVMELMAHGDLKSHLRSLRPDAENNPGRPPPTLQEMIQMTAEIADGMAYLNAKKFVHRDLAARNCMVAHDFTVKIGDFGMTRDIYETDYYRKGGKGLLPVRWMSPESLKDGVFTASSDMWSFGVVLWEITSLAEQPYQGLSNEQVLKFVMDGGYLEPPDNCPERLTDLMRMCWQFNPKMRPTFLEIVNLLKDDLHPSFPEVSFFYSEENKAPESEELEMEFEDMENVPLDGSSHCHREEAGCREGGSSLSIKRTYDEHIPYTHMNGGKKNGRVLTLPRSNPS
Procedure: About 25,000 CHO-M 1 cells/well (ATCC) were seeded in a 96-well tissue culture treated plate and incubate for 24 h before being cultured in serum-free medium. […] Then cells were lysed and a commercially available kit (Cisbio) was used to assay phosphorylated AKT at Ser473. The fluorescence emission at 665 and 620 nm was measured on a HTRF reader (BioTek, USA).
The relative activity was presented as the percentage relative to native insulin±standard deviation (n=6) * p<0.05, ** p<0.01, ns=not significant.

[4] = non-purified (rough) products, 10 nmol/Kg intravenous, FIG. 4A
[5] = purified conjugates, 10 nmol/kg intravenous, FIG. 4B

Substance | blood glucose lowering ability compared with native insulin [1, 4] | blood glucose lowering ability compared with native insulin [1, 5] | hydrodynamic size [2] | Random coil (secondary structure proportion) [3] | activity lost in vitro compared with native insulin (insulin receptor)
PCB-insulin: Conjugate of human recombinant insulin with NHS ester terminated zwitterionic carboxybetaine polymer (~5000 Da), one chain per insulin, prioritized at LysB29 | significantly higher blood glucose lowering ability than native insulin | even higher blood glucose lowering ability than native insulin | – | – | –
PEG-insulin: Comparison conjugate of human recombinant insulin with commercially available PEG-NHS (5000 Da) | similar | did not show any better glucose lowering effect than native insulin | 4.2±0.7 nm | 30% | about 27%
